Source: patent publication US20150291565A1, “INDOLE COMPOUNDS AND THEIR USE AS ANTIMICROBIALS” (Memorial Sloan-Kettering Cancer Center, priority 2012, published 2015)
“And” between values parts separate entries of the source, which are not always exact repeats. Identical values can stand only once.

Columns and labels:
[1] = system: S. aureus (MRSA) (ATCC33591); assay: Septicemia survival model in neutropenic CD1 mice, MRSA; assay type: in vivo; settings: 100 mg/kg BID SC
[2] = system: methicillin-resistant S. aureus (ATCC 33591); assay: Thigh infection model in neutropenic CD1 mice, MRSA; settings: 100 mg/kg BID SC, 24 hours
[3] = system: S. pneumoniae (ATCC 6303); assay: Thigh infection model in neutropenic CD1 mice, S. pneumoniae; settings: 100 mg/kg BID SC, 24 hours; for Log reduction: vs vehicle, 100 mg/kg

For CN[C@H](CC(C)C)C(=O)N[C@H]1C(=O)N[C@@H](CC(N)=O)C(=O)N[C@H]2C(=O)N[C@H]3C(=O)N[C@H](C(=O)N[C@H](C(=O)O)c4cc(O)cc(O)c4-c4cc3ccc4O)[C@H](O)c3ccc(c(Cl)c3)Oc3cc2cc(c3O[C@@H]2O[C@H](CO)[C@@H](O)[C@H](O)[C@H]2O[C@H]2C[C@](C)(N)[C@H](O)[C@H](C)O2)Oc2ccc(cc2Cl)[C@H]1O [Vancomycin, reference compound], the “Percent Survival Day 1” value [1] was 100%, the “Percent Survival Day 2” value [1] was 100% and the “Percent Survival Day 3” value [1] was 100%. The “Percent Survival Day 4” value [1] was 80%, the “Percent Survival Day 5” value [1] was 80% and the “Percent Survival Day 6” value [1] was 80%. The “Percent Survival Day 7” value [1] was 80%, the “Mean bacterial tissue burden (log10/thigh)” value [2] was 5.0033 log10/thigh and the Log reduction ([2]; vs vehicle, 100 mg/kg) was 3.45 Log and 3.4455 Log. For the same compound, the “Mean bacterial tissue burden (log10/thigh)” value [3] was 3.4862 log10/thigh, the Log reduction [3] was 5.6265 Log and the Log reduction ([3]; listed as vancomycin) was 5.63 Log.
